Source: patent publication US20030228675A1, “ATM related kinase ATX, nucleic acids encoding same and methods of use” (priority 2002, published 2003)

How the values were obtained:
ATX [1] = target: T1, ATX (Homo sapiens, UniProt Q96Q15); assay: Immune complex kinase assay, immunoprecipitated HA-ATXWT pretreated with drug, GST-p53 1-70 phosphorylation; format: biochemical; design: was used to isolate a full-length cDNA encoding a novel member of the PIKK family, termed ATX; made in house; settings: pretreatment of immunoprecipitated HA-ATXWT; GST-p53 1-70 substrate; read-out: drug concentration required for 50% inhibition (IC50) of ATX activity in vitro
Method: With the exception of the TOR proteins, the PIKK family members that bear functional catalytic domains phosphorylate substrates bearing the Ser/Thr-Gln motif (Tibbetts and Abraham, supra, 2000). […] Detergent extracts from the transfected cell populations were immunoprecipitated with α-HA antibody, and protein kinase assays were performed in buffer containing Mn2+, [γ-32P]ATP, and a GST fusion protein containing the first 70 amino acids of p53 (GST-p531-70) as the substrate (FIG. 1C). The GST-p531-70 protein was previously identified as a substrate for ATM and ATR in immune complex kinase assays (Tibbetts et al., Genes and Development 13:152-157 (1999)). […] Based on the ratios of 32P incorporation into substrate to levels of HA-tagged protein kinase, it can be estimated that the specific kinase activity of ATXWT was approximately 3.5-fold higher than that of ATMWT. As observed with ATM as the test kinase (Banin et al., Science 281:1674-1677 (1998); Canman et al., Science 281:1677-1679 (1998); Tibbetts et al., supra, 1999), phosphorylation of GST-p531-70 by ATXWT was nearly abolished by substitution of the Ser-15 residue in p53 with Ala (FIG. 1C, right panel). […] In contrast to the amino-terminal fragment, of p53, the PHAS-I/4E-BP1 protein, which is the prototypical substrate for mTOR, was poorly phosphorylated by HA-ATXWT in immune complex kinase assays (data not shown). […]
Target sequence in this assay (Q96Q15 141-3661): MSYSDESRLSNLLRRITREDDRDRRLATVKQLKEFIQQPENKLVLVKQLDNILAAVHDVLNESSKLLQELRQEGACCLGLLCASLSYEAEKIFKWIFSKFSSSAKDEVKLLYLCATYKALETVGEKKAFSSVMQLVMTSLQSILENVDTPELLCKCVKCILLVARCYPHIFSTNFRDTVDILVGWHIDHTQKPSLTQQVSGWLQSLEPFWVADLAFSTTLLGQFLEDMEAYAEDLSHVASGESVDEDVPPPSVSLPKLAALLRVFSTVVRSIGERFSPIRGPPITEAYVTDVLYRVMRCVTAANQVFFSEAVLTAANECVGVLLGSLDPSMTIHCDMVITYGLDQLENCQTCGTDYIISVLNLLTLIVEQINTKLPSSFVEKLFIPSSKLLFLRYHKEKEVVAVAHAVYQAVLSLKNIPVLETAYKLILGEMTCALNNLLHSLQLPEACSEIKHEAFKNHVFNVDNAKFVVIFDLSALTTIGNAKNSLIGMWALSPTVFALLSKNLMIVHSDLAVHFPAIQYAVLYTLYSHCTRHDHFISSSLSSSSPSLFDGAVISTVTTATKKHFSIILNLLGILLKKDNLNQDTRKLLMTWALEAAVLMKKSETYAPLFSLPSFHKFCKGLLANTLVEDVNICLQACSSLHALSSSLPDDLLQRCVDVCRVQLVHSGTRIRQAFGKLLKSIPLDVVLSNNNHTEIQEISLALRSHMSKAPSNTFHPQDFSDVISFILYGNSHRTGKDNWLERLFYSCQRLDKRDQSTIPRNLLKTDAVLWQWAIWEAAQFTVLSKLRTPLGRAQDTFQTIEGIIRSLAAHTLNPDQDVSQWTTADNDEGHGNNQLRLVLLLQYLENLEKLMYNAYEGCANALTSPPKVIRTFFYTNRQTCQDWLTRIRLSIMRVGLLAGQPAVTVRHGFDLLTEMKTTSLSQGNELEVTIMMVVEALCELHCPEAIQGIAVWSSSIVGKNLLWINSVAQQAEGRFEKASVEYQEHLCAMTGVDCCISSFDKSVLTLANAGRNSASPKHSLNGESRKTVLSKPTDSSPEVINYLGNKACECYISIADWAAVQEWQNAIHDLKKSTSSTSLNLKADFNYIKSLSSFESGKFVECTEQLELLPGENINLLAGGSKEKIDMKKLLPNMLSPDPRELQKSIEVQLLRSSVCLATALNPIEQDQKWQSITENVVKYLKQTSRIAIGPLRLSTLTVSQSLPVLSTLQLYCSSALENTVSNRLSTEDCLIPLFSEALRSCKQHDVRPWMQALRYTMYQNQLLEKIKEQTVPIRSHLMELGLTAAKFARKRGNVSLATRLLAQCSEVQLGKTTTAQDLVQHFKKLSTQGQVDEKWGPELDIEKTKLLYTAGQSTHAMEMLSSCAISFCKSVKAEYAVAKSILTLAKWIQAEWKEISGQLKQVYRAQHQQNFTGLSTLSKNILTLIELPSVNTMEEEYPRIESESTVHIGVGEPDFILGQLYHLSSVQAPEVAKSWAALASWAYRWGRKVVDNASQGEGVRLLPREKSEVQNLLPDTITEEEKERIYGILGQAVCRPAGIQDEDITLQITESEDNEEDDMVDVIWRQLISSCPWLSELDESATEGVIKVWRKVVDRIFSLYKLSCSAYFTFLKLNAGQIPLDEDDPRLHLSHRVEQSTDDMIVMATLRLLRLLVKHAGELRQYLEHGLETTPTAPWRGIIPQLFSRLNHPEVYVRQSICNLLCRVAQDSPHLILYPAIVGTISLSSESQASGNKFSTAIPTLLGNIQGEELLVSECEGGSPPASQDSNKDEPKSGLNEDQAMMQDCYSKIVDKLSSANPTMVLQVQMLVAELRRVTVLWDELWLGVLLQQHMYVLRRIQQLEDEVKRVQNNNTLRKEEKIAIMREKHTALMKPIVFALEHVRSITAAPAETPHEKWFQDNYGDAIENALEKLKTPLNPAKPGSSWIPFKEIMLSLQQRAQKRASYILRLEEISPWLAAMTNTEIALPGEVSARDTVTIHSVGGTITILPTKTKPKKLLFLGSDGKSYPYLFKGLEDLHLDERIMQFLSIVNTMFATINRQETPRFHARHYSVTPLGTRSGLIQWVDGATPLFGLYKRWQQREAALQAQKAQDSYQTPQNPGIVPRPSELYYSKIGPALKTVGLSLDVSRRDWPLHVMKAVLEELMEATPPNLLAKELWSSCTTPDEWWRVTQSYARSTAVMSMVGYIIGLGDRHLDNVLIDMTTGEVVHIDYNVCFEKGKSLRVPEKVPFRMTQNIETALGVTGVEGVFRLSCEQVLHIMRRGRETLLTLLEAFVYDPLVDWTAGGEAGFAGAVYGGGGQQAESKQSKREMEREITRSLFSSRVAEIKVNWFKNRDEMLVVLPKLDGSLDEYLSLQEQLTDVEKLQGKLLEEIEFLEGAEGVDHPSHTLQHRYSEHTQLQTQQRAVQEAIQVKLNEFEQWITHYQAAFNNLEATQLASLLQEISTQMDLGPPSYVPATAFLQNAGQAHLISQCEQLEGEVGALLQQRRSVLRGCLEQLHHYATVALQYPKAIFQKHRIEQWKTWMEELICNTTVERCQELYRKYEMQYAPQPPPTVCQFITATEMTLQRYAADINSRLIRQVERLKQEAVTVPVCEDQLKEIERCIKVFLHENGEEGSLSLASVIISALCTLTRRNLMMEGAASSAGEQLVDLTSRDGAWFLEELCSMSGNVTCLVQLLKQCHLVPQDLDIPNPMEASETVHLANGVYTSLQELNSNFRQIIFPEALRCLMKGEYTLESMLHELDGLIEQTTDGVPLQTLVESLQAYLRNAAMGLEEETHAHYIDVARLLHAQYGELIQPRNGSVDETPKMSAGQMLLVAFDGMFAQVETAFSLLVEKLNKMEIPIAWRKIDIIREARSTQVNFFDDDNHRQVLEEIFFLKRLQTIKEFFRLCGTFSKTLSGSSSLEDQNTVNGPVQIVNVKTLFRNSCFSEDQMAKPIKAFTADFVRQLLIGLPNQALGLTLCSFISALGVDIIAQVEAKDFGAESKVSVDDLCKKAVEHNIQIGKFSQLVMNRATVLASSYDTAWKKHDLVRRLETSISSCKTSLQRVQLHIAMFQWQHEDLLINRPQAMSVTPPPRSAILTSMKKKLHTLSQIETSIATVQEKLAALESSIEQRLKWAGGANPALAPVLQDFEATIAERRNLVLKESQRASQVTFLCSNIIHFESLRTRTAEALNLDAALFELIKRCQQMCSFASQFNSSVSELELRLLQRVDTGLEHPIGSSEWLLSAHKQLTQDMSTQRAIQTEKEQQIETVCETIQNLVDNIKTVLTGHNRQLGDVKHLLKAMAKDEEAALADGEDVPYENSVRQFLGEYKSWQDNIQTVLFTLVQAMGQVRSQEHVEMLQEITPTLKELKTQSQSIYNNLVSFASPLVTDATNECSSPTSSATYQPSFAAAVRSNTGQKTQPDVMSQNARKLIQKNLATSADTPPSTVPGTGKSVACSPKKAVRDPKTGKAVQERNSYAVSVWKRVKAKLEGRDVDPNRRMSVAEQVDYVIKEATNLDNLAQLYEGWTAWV

ATX [2] = target: T1, ATX; assay: ATX kinase activity after drug treatment of intact U2OS cells, immunoprecipitation of endogenous ATX; format: cell-based; design: immunoprecipitation of endogenous ATX with α-ATX Ab-2; endogenous in cells; host or cells: U2OS osteosarcoma cells; settings: U2OS cells pretreated for 30 min, endogenous ATX immunoprecipitated with α-ATX Ab-2
From the text: The protein kinase activities of the mammalian PIKKs characteristically display a strong dependence on Mn2+ as a cofactor for the phosphotransferase reaction, and variable sensitivity to inhibition by wortmannin (Abraham, Genes and Development 15:2177-2196 (2001)). In our studies, the protein kinase activity of ATX was also dependent on the addition of Mn2+ the kinase reaction buffer (data not shown). […] Wortmannin is an irreversible inhibitor of PIKKs (Walker et al., Molecular Cells 6:909-919 (2000)) and can be used to assess the potency of this drug as an ATX inhibitor in intact cells. To this end, U2OS osteosarcoma cells were pretreated for 30 min with the indicated concentrations of wortmannin, followed by the preparation of cellular extracts for immunoprecipitation of endogenous ATX with α-ATX Ab-2. […]
For subcellular fractionations, U2OS cells were resuspended in cold homogenization buffer (25 mM Hepes, pH 7.4, 250 mM sucrose, 1 mM EGTA, 5 mM MgCl2, 50 mM NaF, 1 mM DTT, plus protease inhibitors) and Dounce homogenized on ice with 40 strokes in a Tefloncoated homogenizer. […] After separation by SDS-PAGE, the proteins were detected by autoradiography (for kinase reaction products) or by immunoblotting. Proteins immunoblotted with rabbit and mouse antibodies were detected with protein A-horseradish peroxidase (HRP) (Amersham), and sheep anti-mouse IgG-HRP (Amersham), respectively. […]

U2OS cells [3] = assay: Clonogenic survival assay of oligonucleotide-transfected cells; format: cell-based, human; settings: non-irradiated, 10 days in culture
Method: To address concerns related to potential non-specific effects of ATXKI expression on cellular functions, an antisense oligonucleotide-based approach to reduce the level of ATX expression in U2OS cells was developed. The cells were mock transfected, or transfected with sense (S) or antisense (AS) oligonucleotides, and then treated for 24 h with various genotoxic agents. The cells were then trypsinized and replated, and clonogenic survival was analyzed after 10 days in culture. The results obtained with AS-treated cells were strikingly similar to those obtained with the ATXKI-expressing cells (FIGS. 2A-C). While transfection of U2OS cells with the S oligonucleotide reduced the basal level of colony outgrowth by 25%, treatment with the AS oligonucleotide decreased basal clonogenic activity by 75% (FIG. 2C, right panel). […] The reduction in ATX protein caused by AS treatment ranged from 50-90% in over 10 independent trials.
To prepare recombinant HA-tagged ATX and ATM proteins, HEK 293T cells were plated onto 60-mm dishes (9×10^5 cells per dish), and were transfected with 5 μg pcDNA3.1 (empty vector), HA-ATXWT, HA-ATXKI, or HA-ATMWT plasmid DNAS. Transfections were performed with the Fugene 6 transfection reagent (Roche), according to the manufacturer's instructions. For NMD assays (see Example 9, below), U2OS cells were seeded onto 100 mm dishes (1×10^6 cells per dish). […]
U2OS cells were seeded into 60 mm dishes (1×10^5 cells per dish) in complete medium. […] To quantitate the outgrowth of drug-resistant cells, the Coomassie Blue-bound protein was solubilized at 37° C. with 0.1 M NaOH, and the soluble material was analyzed by absorbance spectroscopy at a wavelength of 590 nm. […] Drug-resistant colonies were stained with Coomassie Blue after 10 days in culture, and the samples were analyzed with Image Pro Plus software to quantitate cell density. […]

U2OS cells [4] = assay: Cell-cycle distribution by flow cytometry; format: cell-based, human; settings: 24 h post-irradiation
Method: Since p53 plays a central role in activation of the G1 checkpoint, and influences S, G2, and M checkpoints as well (Giaccia and Kastan, Genes & Development 12:2973-2983 (1998); Ko and Prives, supra, 1996), a functional deficiency of ATX might alter the cell-cycle arrest responses to IR and other genotoxic agents. To test this possibility, U2OS cells were pre-treated with S or AS oligonucleotides, exposed to IR, and cell-cycle distributions at 24 h post-irradiation were determined.
The G2 checkpoint inhibitor was added to the culture medium at 8 h prior to harvest for determination of cell-cycle distributions (FIG. 3E, left panel), and immunoblotting for ATX expression (right panel).

p53 = assay: Stress-induced p53 Ser-15 phosphorylation and p53 accumulation by immunoblotting; format: cell-based, human; settings: U2OS treated with the drug
Method: To prepare recombinant HA-tagged ATX and ATM proteins, HEK 293T cells were plated onto 60-mm dishes (9×10^5 cells per dish), and were transfected with 5 μg pcDNA3.1 (empty vector), HA-ATXWT, HA-ATXKI, or HA-ATMWT plasmid DNAS. Transfections were performed with the Fugene 6 transfection reagent (Roche), according to the manufacturer's instructions. For NMD assays (see Example 9, below), U2OS cells were seeded onto 100 mm dishes (1×10^6 cells per dish). After 20 h, cells were transfected with 1.5 μg of pmCMV-Gl test plasmid, either Norm or 39Ter (Ishigaki et al., 2001); 1.5 μg of phCMV-MUP reference plasmid (Ishigaki et al., Cell 106:607-617 (2001)); and 7 μg of empty plasmid (pcDNA 3.1), plasmids encoding HA-ATMWT, HA-ATMKI, HA-ATXWT or HA-ATXKI. For antisense transfection experiments, U2OS cells were seeded onto 60 mm dishes (1×10^5 cells per dish) in complete medium supplemented with penicillin/streptomycin. After 30 h, cells were either mock transfected or transfected with sense (S) or antisense (AS) phosphorothioate oligonucleotides (Genset Oligos, La Jolla, Calif.). The S oligonucleotide spans ATX nucleotides 210-229 (5′-[…]-3′), and the AS oligonucleotide is complementary to this sequence (5′-[…]-3′). The cells were transfected with oligonucleotides at final concentrations of 8 μg/ml, with Fugene 6:DNA ratio of 1.6:1. Forty-eight hours after transfection, dishes were exposed to IR, UV-B, or 5-FU, and then harvested for immunoblotting, cell-cycle distribution, or cell survival assays. To examine ATX protein levels in oligonucleotide-treated cells, whole cell extracts were resolved by SDS-PAGE and immunoblotted with α-ATX Ab-1. When oligonucleotide-transfected cells were used for NMD assays, U2OS cells were seeded in culture dishes as described above. The cells were transfected using the Fugene reagent, with 1.5 μg of pmCMV-Gl test plasmid, 0.7 μg of phCMV-MUP reference plasmid, and 24 μg of S or AS oligonucleotide.
A major mediator of stress-induced signaling in mammalian cells is the tumor suppressor protein, p53 (Ko and Prives, Genes and Development 10:1054-1072, (1996); Ryan et al., Curr. Opin. Cell Biol. 13:332-337 (2001)). ATX phosphorylates p53 on Ser-15 (FIG. 1C), a site implicated in the regulation of p53 stability and transcriptional activity (Dumaz and Meek, Curr. Opin. Cell Biol. 13:225-231 (1999); Zhang and Xiong, Science 292:1910-1915 (2001)). Therefore, the possibility that these two proteins are functionally linked during cellular stress responses was investigated. U2OS cells were transiently transfected with a HA-ATXWT or HA-ATXKI expression plasmid, together with a GFP-encoding plasmid to allow for FACS-based enrichment of the transfected cells. The GFP+ cells were then examined for IR-induced stabilization of p53, as well as for specific phosphorylation of this protein on Ser-15. […] In contrast, overexpression of ATXWT enhanced both of these responses in cells exposed to IR.
The recognition of UV light-induced DNA damage occurs primarily during S phase, when pyrimidine dimers and other bulky lesions interfere with replication fork progression (Friedberg, DNA Repair and Mutagenesis (Washington, D.C., ASM Press) (1995); Lindahl and Wood, Cell 103:1121-1131 (1999)).
In order to further define the potential linkage between DNA replicational stress and ATX, the response of AS-treated cells to 5-fluorouracil (5-FU), an S-phase specific cytotoxic agent was examined (Danenberg et al., Seminars in Oncology 26:621-631 (1999); Grem, Investigational New Drugs 18:299-313 (2000)).
Changes in phosphorylation at Ser-15 are typically accompanied by alterations in the expression of the p53 protein, which complicates the interpretation of results obtained by immunoblotting of whole cell extracts with phospho-Ser-15-specific antibodies. […]

Which IC50 (ATX [1]) does the source give for `COC[C@H]1OC(=O)c2coc3c2[C@@]1(C)C1=C(C3=O)[C@@H]2CCC(=O)[C@@]2(C)C[C@H]1OC(C)=O` [wortmannin] here?
Its IC50 is 10 to 100 nM.

What about the IC50 (ATX [2]) of the same compound?
Its IC50 is 1000 to 3000 nM.

With “5′-GAGACAGGAGGGAGCTTGCT-3′ (all phosphorothioate, sugars by position and methylation of C not given here) [S oligonucleotide, reference compound]” as the compound, how does the “decrease of basal level of colony outgrowth (basal clonogenic activity)” value (U2OS cells [3]) read?
Its value is 25%.

And the “cell-cycle distribution after IR exposure” value (U2OS cells [4])?
Its value is “accumulated in both G1 and G2/M phases and were cleared out of S phase”.

What does the source list for `O=c1[nH]cc(F)c(=O)[nH]1` [5-FU, 5-fluorouracil, reference compound]?
Ser-15 phosphorylation of p53 (p53): not accompanied by an increase in Ser-15 phosphorylation; p53 expression (p53): increased p53 expression to levels similar to those observed in UV-irradiated cells
